Literature values as cited in patent US20180161299A1, “ESSENTIAL NUTRIENTS AND RELATED METHODS” (Balchem Corporation, priority 2016, published 2018).

Assays:
[1] = pregnant women, choline intake increased from 480 mg to 930 mg

**Q.** With cobalamin [Vitamin B12] as the compound, how does the “increase in the amount of B12 analogues present in the GI tract and in the circulation” value (large oral and systemic doses of B12) read?
**A.** The value was “more than 10 fold”.

**Q.** And the “vitamin B12 absorbed by diffusion from the gastrointestinal tract” value (large oral doses (500 μg to 5000 μg))?
**A.** Its value is “less than 1%”.

**Q.** And the “vitamin B12 absorbed” value (typical oral vitamin B12 supplementations)?
**A.** Its value is “less than 1%”.

**Q.** For `C[N+](C)(C)CCO` [choline, N,N,N-trimethylethanolammonium cation], which “choline excreted in the urine” value [1] is on record?
**A.** The value was “little, if any”.
